pIC50: −log10 of the molar value.
System: 832693-133-R-J1-PDC multi-cell spheroids, viability
Test: Anticancer human tumor 832693-133-R-J1-PDC patient-derived head and neck squamous carcinoma cell line growth inhibition [IpAb]
Conditions: for pIC50: curve of first compound; for viability, T/C: stronger effect = lower value
In short: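 Spheroids of 60% malignant cells, 25% HUVEC and 15% MSC were exposed to targeted agents combined with ipatasertib or abemaciclib. Doses started at or near clinical Cmax (10 microM when unknown) and fell in half-log steps.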

[1] = second compound 0.01 µM, first compound 0.0316 µM
[2] = second compound 0.01 µM, first compound 0.1 µM
[3] = second compound 0.01 µM, first compound 0.316 µM
[4] = second compound 0.01 µM, first compound 1 µM
[5] = second compound 0.01 µM, first compound 3.16 µM
[6] = second compound 0.01 µM, first compound 10 µM
[7] = second compound 0.0316 µM, first compound 0.0316 µM
[8] = second compound 0.0316 µM, first compound 0.1 µM
[9] = second compound 0.0316 µM, first compound 0.316 µM
[10] = second compound 0.0316 µM, first compound 1 µM
[11] = second compound 0.0316 µM, first compound 3.16 µM
[12] = second compound 0.0316 µM, first compound 10 µM
[13] = second compound 0.1 µM, first compound 0.0316 µM
[14] = second compound 0.1 µM, first compound 0.1 µM
[15] = second compound 0.1 µM, first compound 0.316 µM
[16] = second compound 0.1 µM, first compound 1 µM
[17] = second compound 0.1 µM, first compound 3.16 µM
[18] = second compound 0.1 µM, first compound 10 µM
[19] = second compound 0.316 µM, first compound 0.0316 µM
[20] = second compound 0.316 µM, first compound 0.1 µM
[21] = second compound 0.316 µM, first compound 0.316 µM
[22] = second compound 0.316 µM, first compound 1 µM
[23] = second compound 0.316 µM, first compound 3.16 µM
[24] = second compound 0.316 µM, first compound 10 µM
[25] = second compound 1 µM, first compound 0.0316 µM
[26] = second compound 1 µM, first compound 0.1 µM
[27] = second compound 1 µM, first compound 0.316 µM
[28] = second compound 1 µM, first compound 1 µM
[29] = second compound 1 µM, first compound 3.16 µM
[30] = second compound 1 µM, first compound 10 µM
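Note: spheroids exposed to the drugs for one week before the viability readout.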
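Throughout, for viability, T/C: 100% = DMSO vehicle control wells.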

| Compound | pIC50 (second compound 0.01 µM) | pIC50 (second compound 0.0316 µM) | pIC50 (second compound 0.1 µM) | pIC50 (second compound 0.316 µM) | pIC50 (second compound 1 µM) | viability, T/C [1] [%] | viability, T/C [2] [%] | viability, T/C [3] [%] | viability, T/C [4] [%] | viability, T/C [5] [%] | viability, T/C [6] [%] | viability, T/C [7] [%] | viability, T/C [8] [%] | viability, T/C [9] [%] | viability, T/C [13] [%] | viability, T/C [14] [%] | viability, T/C [19] [%] | viability, T/C [20] [%] | viability, T/C [25] [%] | viability, T/C [26] [%] | further results |
| --- | --- | --- | --- | --- | --- | --- | --- | --- | --- | --- | --- | --- | --- | --- | --- | --- | --- | --- | --- | --- | --- |
| C=CC(=O)N1CCN(c2nc(=O)n(-c3c(C)ccnc3C(C)C)c3nc(-c4c(O)cccc4F)c(F)cc23)C(C)C1 (stereo not given) + CCN1CCN(Cc2ccc(Nc3ncc(F)c(-c4cc(F)c5nc(C)n(C(C)C)c5c4)n3)nc2)CC1 | < 5.00 | < 5.00 | < 5.00 | < 5.00 | < 5.00 | 96.7 | 104 | 105 | 109 | 117 | 104 | 89.5 | 89.6 | 90.5 | 68.8 | 78.8 | 58.3 | 59.3 | 53.8 | 58.9 | viability, T/C [10]: 92.2%; viability, T/C [11]: 115%; viability, T/C [12]: 95%; viability, T/C [15]: 73.3%; viability, T/C [16]: 82.9%; viability, T/C [17]: 101%; viability, T/C [18]: 86.3%; viability, T/C [21]: 64%; viability, T/C [22]: 64.9%; viability, T/C [23]: 77.5%; viability, T/C [24]: 84.2%; viability, T/C [27]: 65.5%; viability, T/C [28]: 73.7%; viability, T/C [29]: 82.4%; viability, T/C [30]: 98.4% |
| Cn1ncc(Cl)c1-c1cc(C(=O)NC(CN)Cc2cccc(F)c2)sc1Cl (stereo not given) + CCN1CCN(Cc2ccc(Nc3ncc(F)c(-c4cc(F)c5nc(C)n(C(C)C)c5c4)n3)nc2)CC1 | 5.35 | 5.49 | > 7.50 | > 7.50 | > 7.50 | 94.4 | 91.1 | 67.5 | 50.2 | 73.7 | 0.29 | 79.4 | 70.2 | 61.3 | 64.4 | 50 | 53.2 | 38.4 | 47.6 | 37.1 | viability, T/C [10]: 46.6%; viability, T/C [11]: 59.9%; viability, T/C [12]: 0.25%; viability, T/C [15]: 43.4%; viability, T/C [16]: 37.8%; viability, T/C [17]: 49.9%; viability, T/C [18]: 0.21%; viability, T/C [21]: 31.6%; viability, T/C [22]: 33.3%; viability, T/C [23]: 32.1%; viability, T/C [24]: 0.19%; viability, T/C [27]: 33.2%; viability, T/C [28]: 32.8%; viability, T/C [29]: 36%; viability, T/C [30]: 0.28% |
| Cn1ncnc1[C@H]1c2n[nH]c(=O)c3cc(F)cc(c23)N[C@@H]1c1ccc(F)cc1 + CCN1CCN(Cc2ccc(Nc3ncc(F)c(-c4cc(F)c5nc(C)n(C(C)C)c5c4)n3)nc2)CC1 | < 7.00 | < 7.00 | < 7.00 | < 7.00 | < 7.00 | 94.7 | 77.3 | – | – | – | – | 76 | 69.5 | – | 63 | 63.2 | 60.8 | 56.3 | 65.2 | 48.2 | viability, T/C (second compound 0.01 µM, first compound 0.000316 µM): 101%; viability, T/C (second compound 0.01 µM, first compound 0.001 µM): 109%; viability, T/C (second compound 0.01 µM, first compound 0.00316 µM): 93.2%; viability, T/C (second compound 0.01 µM, first compound 0.01 µM): 91.9%; viability, T/C (second compound 0.0316 µM, first compound 0.000316 µM): 90.5%; viability, T/C (second compound 0.0316 µM, first compound 0.001 µM): 86.1%; viability, T/C (second compound 0.0316 µM, first compound 0.00316 µM): 73.8%; viability, T/C (second compound 0.0316 µM, first compound 0.01 µM): 74.6%; viability, T/C (second compound 0.1 µM, first compound 0.000316 µM): 60.1%; viability, T/C (second compound 0.1 µM, first compound 0.001 µM): 58%; viability, T/C (second compound 0.1 µM, first compound 0.00316 µM): 61%; viability, T/C (second compound 0.1 µM, first compound 0.01 µM): 70.5%; viability, T/C (second compound 0.316 µM, first compound 0.000316 µM): 59.1%; viability, T/C (second compound 0.316 µM, first compound 0.001 µM): 53.6%; viability, T/C (second compound 0.316 µM, first compound 0.00316 µM): 60.5%; viability, T/C (second compound 0.316 µM, first compound 0.01 µM): 56.5%; viability, T/C (second compound 1 µM, first compound 0.000316 µM): 63.6%; viability, T/C (second compound 1 µM, first compound 0.001 µM): 56.2%; viability, T/C (second compound 1 µM, first compound 0.00316 µM): 60.6%; viability, T/C (second compound 1 µM, first compound 0.01 µM): 63.5% |
